# Measurements from ChEMBL document CHEMBL3769343, “Spiromastilactones: A new class of influenza virus inhibitors from deep-sea fungus” (Eur J Med Chem, 2016).
# Columns and labels:
# Assay type in all cases: functional, organism-based
# Influenza A virus [1] = test: Antiviral activity against amantadine-resistant influenza A virus HN/1222 (H3N2) infected in dog MDCK cells assessed as inhibition of virus induced cytopathic effect after 40 hrs by Cell-Titer-Glo assay
# Influenza A virus [2] = test: Antiviral activity against amantadine-resistant influenza A virus JX/312 (H3N2) infected in dog MDCK cells assessed as inhibition of virus induced cytopathic effect after 40 hrs by Cell-Titer-Glo assay
# Influenza A virus [3] = test: Antiviral activity against oseltamivir-resistant influenza A virus LN/1109 (H1N1) infected in dog MDCK cells assessed as inhibition of virus induced cytopathic effect after 40 hrs by Cell-Titer-Glo assay
SMILES,EC50 (Influenza A virus [1]) [µM],EC50 (Influenza A virus [2]) [µM],EC50 (Influenza A virus [3]) [µM]
CCCc1c(Cl)c(O)cc(OC)c1Oc1c(Cl)c(O)c(Cl)c2c1C(=O)O[C@@H]2CC,38.5,35.3,33.5
NC12CC3CC(CC(C3)C1)C2 [AMANTADINE],> 20.5,4.28,> 200
CCOC(=O)C1=C[C@@H](OC(CC)CC)[C@H](NC(C)=O)[C@@H](N)C1 [OSELTAMIVIR],> 200,9.75,0.82
NC(=O)c1ncn([C@@H]2O[C@H](CO)[C@@H](O)[C@H]2O)n1 [RIBAVIRIN],3.56,1.43,1.05
